Structures can show the parent of a compound that is named as a salt.
Test: Aqueous solubility of the drug

solubility (at pH 7) | Molecule | solubility (at pH 4)
– | 4-[3-[4-(2-methylimidazol-1-yl) phenylthio] phenyl]-3,4,5,6-tetrahydro-2H-pyran-4-carboxamide hemifumarate [Drug 3] | 3.7 mgA/mL
0.2 mg/mL | CN[C@H]1CC[C@@H](c2ccc(Cl)c(Cl)c2)c2ccccc21 [Drug 2, sertraline HCl] | –
